Drawing on US20260306644A1, “ANTIBODY RECRUITING MOLECULES FOR THE TREATMENT OF CORONAVIRUS DISEASE-19” (priority 2023, published 2026), this text covers EC50, IC50 and Kd for seven compounds.

The subject of assay [1] is live SARS-CoV-2 Virus (wildtype). The assay is described as follows: Neutralization of live SARS-CoV-2 virus, wildtype (Vero E6 cells, nucleoprotein ELISA). Format: cell-based.
Assay [2] relates to Spike RBD coated magnetic beads / RAW 264.7 macrophages. Briefly: Antibody-dependent cellular phagocytosis (ADCP), RAW 264.7 macrophages and Spike RBD coated magnetic beads, flow cytometry. The format is cell-based. Conditions: 37° C., 2 hours, read-out: SARS-COV-2 ADCP EC50. The procedure:
The ability of the compounds to mediate antibody-dependent cellular phagocytosis (ADCP) was assessed using RAW 264.7 macrophages and Spike RBD coated magnetic beads (https://www.acrobiosystems.com/P3194-SARS-CoV-2-Spike-RBD-coupled-Magnetic-Beads.html). Spike RBD coated magnetic beads (3 ul per well) were added to each well of a round bottom 96-well plates. RAW264.7 cells (50,000 cells per well) were added to the beads. Next, the compounds were administered to predetermined final concentrations. The cell-bead mixtures were incubated at 37° C. for 2 hours. The mixtures were then analyzed by flow cytometry.

For another assay, the target named is SARS-CoV-2 Spike protein (Severe acute respiratory syndrome coronavirus 2, UniProt P0DTC2). The assay is described as follows: Ternary binding of SARS-CoV-2 Spike protein (293T cells expressing Spike-GFP, IgG-AF647, flow cytometry). Format: cell-based. Conditions: 293T cells expressing Spike-GFP; IgG-AF647 10 μg/ml; repeat values/batches listed separately; read-out: SARS-CoV-2 Ternary binding EC50.

Assay [3] concerns the target T1, SARS-CoV-2 Spike Glycoprotein RBD protein (Severe acute respiratory syndrome coronavirus 2, UniProt P0DTC2).
T1 construct: SARS-CoV-2 (COVID-19) S Protein RBD, His Tag; purchased Acro Biosystems SPD-C52H3
The assay is described as follows: Binding of biotinylated ligands to SARS-CoV-2 Spike Glycoprotein RBD protein by ELISA. Conditions: ELISA; biotinylated ligands; Spike RBD; read-out: ELISA SARS-CoV-2 Spike RBD Protein Binding EC50. As to the method: Materials. The binding affinity of biotinylated ligands to SARS-CoV-2 Spike Glycoprotein RBD protein was determined by ELISA. The binding assay was performed using the following steps: (1) assay plates (PE B&W Isoplate 96-well Flat Bottom, High Bindi-g - Perkin Elmer 6005580) were coated with 100 ul Anti-6× His tag antibody (Anti-6× His tag Antibody; Abcam ab15149, Mouse Monoclonal; Cambridge, UK) at 5 μg/ml in PBS, incubate 1 hour at 37° C. without shaking. The plates were washed (each wash step of this assay includes four 1-minute washes with 200 ul phosphate-buffered saline-0.05% (w/v) Tween® 20 detergent (PBST)). (2) Plates were blocked with 200 ul PBST-5% BSA (PBSTB; American Bio AB01088-00100; Canton, MA), for an hour at room temperature on a plate shaker (400 rpm). The plates were washed. […] The plates were washed. (4) Ligands were added, 100 ul at a concentration range of 0.1 mM to 100 nM in PBSTB, and incubated for 1 hour at room temperature on a plate shaker (200 RPM). The plates were washed. (5) NeutrAvidin™-HRP (Invitrogen 31030; Waltham, MA) is added, 100 ul at a dilution of 1:20,000 in PBSTB, and incubated for 1 hour at room temperature on a plate shaker (200 RPM). The plates were washed. (6) SuperSignal ELISA Pico Chemiluminescent Substrate (Thermo Scientific 37069; Waltham, MA) was added and incubated for 5 minutes at room temperature on a plate shaker (200 RPM).

In assay [4] the target is T2, SARS-CoV-2 Spike A (wild-type) (Severe acute respiratory syndrome coronavirus 2, UniProt P0DTC2).
T2 construct: purchased Meso Scale Diagnostics, LLC V-PLEX SARS-CoV-2 Panel 13 (ACE2) Kit / Panel 23 (ACE2) Kit
Briefly: MSD ACE2 competition assay (inhibition of Spike binding with ACE2, ECL), A (wild-type). Conditions: IC50 Wild Type, Wild Type Spike.

The target in a further assay is native human IgG1. The assay is described as follows: Ligand binding to native human IgG1 by Bio-Layer Interferometry (BLI). Conditions: read-out: Octet Native IgG1 Binding KD. As to the method:
The binding of exemplary compounds to native human IgG1 was measured by Bio-Layer Interferometry (BLI) using the ForteBio Octet® 96e platform (Fremont, CA). The binding assay was performed using the Protein L (ProL) Dip and Read Biosensors (ForteBio 18-5085) in a 96-well black flat bottom assay plate (Greiner Bio-One 655209; Monroe, NC) with the following steps: (1) 60 seconds of baseline; (2) 600 seconds of loading with 50 μg/ml of Native Human IgG1 (Abcam ab184886; Cambridge, UK); (3) 60 seconds of baseline; (4) 180 seconds of association with a dilution series of ligand in Assay Buffer (PBS (Gibco 10010; Grand Island, New York), 0.1% (w/v) BSA (American Bio AB01088-00100; Canton, MA), 0.05% (v/v) Tween 20 (Fisher BioReagents™ BP337-500; Pittsburgh, PA), pH 7.4), consisting of seven concentrations. The eighth tip in the column was run in Assay Buffer to serve as a reference sensor, the signal of which was subtracted from the sample sensors. (5) 180 seconds of dissociation in Assay Buffer.
The data was analyzed with the Octet® Data Analysis HT software. The processed data was globally fit to a 1:1 binding model for determination of the equilibrium dissociation constant (KD) and is shown in Table 7.

Setting [5] is: live virus neutralization, isolate Seattle WA (IITRI), Vero E6.

Where “and” joins values, the source holds several entries; their conditions need not be identical. Identical values can stand only once. Like-named read-outs stand apart in the source and are kept apart here. Positions of bridges follow the written chain, without caps; N, C: chain ends. Non-standard residues stand in square brackets, D forms with d. Residues, ends and D or L forms follow the SMILES beside them. No end group written: not given here. *: point of attachment. X1 = O=C(CCCC[C@@H]1SC[C@@H]2NC(=O)N[C@@H]21)NCCOCCOCCOCCOCCN*; Biotin = O=C1N[C@H]2[C@H](CS[C@H]2CCCCC(=O)*)N1; PEG4 = NCCOCCOCCOCCOCCC(=O)O; hCys = N[C@@H](CCS)C(=O)O; Nle = CCCC[C@H](N)C(=O)O; Aib = CC(C)(N)C(=O)O

For the compound `CC[C@H](C)[C@H](NC(=O)[C@H](CC(C)C)NC(=O)[C@H](CC(=O)O)NC(=O)[C@H](CO)NC(=O)[C@@H](NC(=O)[C@H](CCCNC(=N)N)NC(=O)[C@H](CCSC)NC(=O)[C@H](CO)NC(=O)[C@H](C)NC(=O)[C@H](CCC(=O)O)NC(=O)[C@H](C)NC(=O)[C@H](Cc1c[nH]cn1)NC(=O)CNC(=O)[C@H](CC(C)C)NC(=O)[C@H](CCC(=O)O)NC(=O)[C@H](CC(=O)O)NC(=O)[C@H](CC(C)C)NC(=O)[C@H](CC(C)C)NC(=O)[C@H](CCCNC(=N)N)NC(=O)[C@H](CCSC)NC(=O)[C@@H](NC(=O)[C@H](CCC(=O)O)NC(=O)[C@H](Cc1ccc(O)cc1)NC(=O)[C@@H](NC(=O)[C@H](CCCCN)NC(=O)[C@H](CCC(N)=O)NC(=O)[C@H](CC(C)C)NC(=O)[C@@H](NC(=O)[C@H](Cc1c[nH]c2ccccc12)NC(=O)[C@H](CCC(=O)O)NC(=O)[C@H](CCCCN)NC(=O)[C@H](CC(=O)O)NC(=O)CCOCCOCCOCCOCCOCCOCCOCCOCCNC(=O)CCOCCOCCOCCOCCOCCOCCOCCOCCC(=O)N[C@@H](CC(=O)O)C(=O)N[C@H]1CSSC[C@@H](C(=O)N[C@H](C(N)=O)[C@@H](C)O)NC(=O)[C@H](Cc2c[nH]c3ccccc23)NC(=O)[C@H](C(C)C)NC(=O)[C@H](CC(C)C)NC(=O)[C@H](CCC(=O)O)NC(=O)CNC(=O)[C@H](CC(C)C)NC(=O)[C@H](Cc2c[nH]cn2)NC(=O)[C@H](Cc2c[nH]c3ccccc23)NC(=O)[C@H](C)NC1=O)[C@@H](C)CC)[C@@H](C)CC)[C@@H](C)CC)C(C)C)C(=O)N[C@@H](Cc1ccc(O)cc1)C(=O)N[C@@H](CCC(=O)O)C(=O)N[C@@H](Cc1ccccc1)C(=O)N[C@@H](CCSC)C(=O)N[C@@H](CCCCN)C(=O)N[C@@H](CCCCN)C(=O)NCC(=O)N[C@@H](CC(=O)O)C(=O)N[C@@H](CCC(=O)O)C(=O)N[C@@H](CCCNC(=N)N)C(=O)N[C@@H](CC(C)C)C(=O)N[C@@H](CC(C)C)C(=O)N[C@@H](CCC(=O)O)C(=O)N[C@@H](CCC(=O)O)C(=O)N[C@@H](C)C(=O)N[C@@H](CCC(=O)O)C(=O)N[C@@H](CCCNC(=N)N)C(=O)N[C@@H](CC(C)C)C(=O)N[C@@H](CC(C)C)C(=O)N[C@@H](CCC(=O)O)C(=O)N[C@@H](CCC(=O)O)C(=O)N[C@H](C(=O)N[C@@H](CCC(=O)O)C(=O)N[C@@H](CCCNC(=N)N)C(N)=O)C(C)C` [Compound 128], the EC50 in assay [1] (read-out: Seattle WA (IITRI) EC50) is 42 pM; in assay [2] it was 45 pM and 52 pM.

As for `CC[C@H](C)[C@@H]1NC(=O)[C@H](Cc2c[nH]c3ccccc23)NC(=O)[C@H](CCC(=O)O)NC(=O)CSCC[C@@H](C(=O)NCCOCCOCCOCCOCCNC(=O)CCCC[C@@H]2SC[C@@H]3NC(=O)N[C@@H]32)NC(=O)[C@H](CCCCN)NC(=O)[C@H](CCCCN)NC(=O)[C@H](CCSC)NC(=O)[C@H](Cc2ccccc2)NC(=O)[C@H](CCC(=O)O)NC(=O)[C@H](Cc2ccc(O)cc2)NC(=O)[C@H]([C@@H](C)CC)NC(=O)[C@H](CC(C)C)NC(=O)[C@H](CC(=O)O)NC(=O)[C@H](CO)NC(=O)[C@H](C(C)C)NC(=O)[C@H](CCCNC(=N)N)NC(=O)[C@H](CCSC)NC(=O)[C@H](CO)NC(=O)[C@H](C)NC(=O)[C@H](CCC(=O)O)NC(=O)[C@H](C)NC(=O)[C@H](Cc2c[nH]cn2)NC(=O)CNC(=O)[C@H](CC(C)C)NC(=O)[C@H](CCC(=O)O)NC(=O)[C@H](CC(=O)O)NC(=O)[C@H](CC(C)C)NC(=O)[C@H](CC(C)C)NC(=O)[C@H](CCCNC(=N)N)NC(=O)[C@H](CCSC)NC(=O)[C@H]([C@@H](C)CC)NC(=O)[C@H](CCC(=O)O)NC(=O)[C@H](Cc2ccc(O)cc2)NC(=O)[C@H]([C@@H](C)CC)NC(=O)[C@H](CCCCN)NC(=O)[C@H](CCC(N)=O)NC(=O)[C@H](CC(C)C)NC1=O` [Compound 251] ({CH2CO}-EWILQKIYEIMRLLDELGHAEASMRVSDLIYEFMKK[hCys]-X1; thioether N-37), the EC50 at SARS-CoV-2 Spike protein is 80 pM; in assay [3] it was 920 pM.

Turning to “Ac-DCAWHLGELVWCTDKEWILQKIYEIMRLLDELGHAEASMRVSDLIYEFMKKGDERLLEEAERLLEEVER (disulfide 2-12) [Compound 120]”, the EC50 on SARS-CoV-2 Spike protein was 330 pM and 310 pM; in assay [1] (setting [5]), 1 pM; in assay [2], 1900 pM and 1800 pM. Also, in assay [4], the IC50 is < 10000 pM and 1570 pM.

Regarding “Ac-DKEWILQKIYEIMRLLDELGHAEASMRVSDLIYEFMKKGDERLLEEAERLLEEVERDCAWHLGELVWCT (disulfide 58-68) [Compound 110]”, the EC50 at SARS-CoV-2 Spike protein is 140 pM and 130 pM; in assay [1] (setting [5]), 5.8 pM; in assay [2], 1500 pM and 1200 pM. The compound also displayed an IC50 in assay [4] of less than 10000 pM.

For the compound “Ac-DKEWILQKIYEIMRLLDELGHAEASMRVSDLIYEFMKKGPASPASPASPASDCAWHLGELVWCT (disulfide 53-63) [Compound 167]”, the EC50 at SARS-CoV-2 Spike protein was determined as 240 pM; in assay [2], 110 pM. In addition, the IC50 in assay [4] came out at 10800 pM. The Kd on native human IgG1 was less than 1000 pM.

“DKEWILQKIYEIMRLLDELGHAEASMRVSDLIYEFMKKGDERLLEEAERLLEEVERDCAWHLGELVWCT (disulfide 58-68) [Compound 111]”: a half-maximal response in assay [1] (setting [5]) (EC50) required 140 pM. The compound also showed an IC50 in assay [4] of 1390 pM.

On to “{Biotin-PEG4}-[Aib]SDKEWILQKIYEIMRLLDELGHAEAS[Nle]RVSDLIY[Aib]FMK[Aib]G [Compound 218]”, for which the EC50 worked out at 100 pM on SARS-CoV-2 Spike protein and 2380 pM in assay [3].
